Assay results reported in patent publication US8835644B2, “Broad spectrum benzothiophene-nitrothiazolide and other antimicrobials” (University of Virginia Patent Foundation, priority 2009, dated 2014).
≈ marks a conversion by molar mass, not a printed value. Read-outs that look alike come from different tables or passages of the source. Blank lines part the entries; values can stand above or below the compound they belong to.

What was measured:
E. coli = test: MIC testing by broth dilution, E. coli plank; type: cell-based, Escherichia coli
Experimental: (§1) A standard broth dilution protocol was used in 96 well microplates containing a standard dilution of the microorganism to be tested in 100 microliters of the appropriate medium. Appropriate medium: E. coli, LB medium; Staphylococcus strains, Trypticase Soy; and for H. pylori and C. jejuni, Brain Heart Infusion. The compounds to be tested were set at 32 μg/ml in 200 microliters in well one and then serially diluted to provide a range from 32 to 0.06. The wells were scored visually at 24 h. The well where there was no growth was recorded as the MIC. Clostridium difficile was tested by agar diffusion and disk diffusion (Kirby Bower) methods under anaerobic conditions on Wilkins Chalgrin agar. In these assays, zone of inhibited growth was measured and compared by relative ratio to the zone recorded for NTZ.
(§2) Representative compounds of the invention were tested in a series of assays against a series of organisms as described above. […] The organisms tested include, C. difficile, H. pylori, C. jejuni, MRSA, S. epidermidis, and E. coli. S. epidermidis and E. coli were tested in the plank and biofilm assay. A disk diffusion assay was also used for C. difficile. Direct PFOR enzyme assays were also performed. All analogues and derivatives were not tested on every organism in every type of assay (the “-” in each table means that it was not tested).

MRSA = test: MIC testing by broth dilution, MRSA; type: cell-based, Staphylococcus aureus
Experimental: as §1, §2

C. jejuni = test: MIC testing by broth dilution, C. jejuni; type: cell-based, Campylobacter jejuni
Experimental: as §1, §2

S. epidermidis = test: MIC testing by broth dilution, S. epidermidis plank; type: cell-based, Staphylococcus epidermidis
Experimental: as §1, §2

H. pylori = test: MIC testing by broth dilution, H. pylori; type: cell-based, Helicobacter pylori
Experimental: as §1, §2

[1] = planktonic, Furan analogues table, read-out: MIC E. coli Plank
[2] = Furan analogues table, read-out: MIC MRSA
[3] = Furan analogues table, read-out: MIC C. jejuni
[4] = planktonic, Furan analogues table, read-out: MIC S. epidermidis Plank
[5] = Furan analogues table, read-out: MIC H. pylori
[6] = planktonic, Thiophene analogues table, read-out: MIC E. coli Plank
[7] = Thiophene analogues table, read-out: MIC MRSA
[8] = Thiophene analogues table, read-out: MIC C. jejuni
[9] = planktonic, Thiophene analogues table, read-out: MIC S. epidermidis Plank
[10] = Thiophene analogues table, read-out: MIC H. pylori
[11] = broth dilution, LB medium, 24 h, read-out: MIC (μM) E. coli Plank
[12] = broth dilution, Trypticase Soy, 24 h, read-out: MIC (μM) MRSA
[13] = broth dilution, Brain Heart Infusion, 24 h, read-out: MIC (μM) C. jejuni
[14] = broth dilution, Trypticase Soy, 24 h, read-out: MIC (μM) S. epidermidis Plank
[15] = broth dilution, Brain Heart Infusion, 24 h, read-out: MIC (μM) H. pylori

- MIC (E. coli; [1]): 92.7 µM (≈ 32 µg/mL)
- MIC (MRSA; [2]): 92.7 µM (≈ 32 µg/mL)
- MIC (C. jejuni; [3]): 92.7 µM (≈ 32 µg/mL)
- MIC (S. epidermidis; [4]): 92.7 µM (≈ 32 µg/mL)
- MIC (H. pylori; [5]): 1.5 µM (≈ 0.518 µg/mL)
Structure (SMILES): COc1ccc(-c2ccc(C(=O)Nc3ncc([N+](=O)[O-])s3)o2)cc1 [VPC16b1139]

Structure (SMILES): O=C(Nc1ncc([N+](=O)[O-])s1)c1ccc(-c2ccoc2)o1 [VPC16b1142]
- MIC (E. coli; [1]): 104.8 µM (≈ 32 µg/mL)
- MIC (MRSA; [2]): 26.2 µM (≈ 8 µg/mL)
- MIC (C. jejuni; [3]): 13.1 µM (≈ 4 µg/mL)
- MIC (S. epidermidis; [4]): 13.1 µM (≈ 4 µg/mL)
- MIC (H. pylori; [5]): 1.6 µM (≈ 0.488 µg/mL)

- MIC (E. coli; Escherichia coli, planktonic, Furan analogues table, read-out: MIC E. coli Plank): 99.6 µM (≈ 32 µg/mL)
- MIC (MRSA; Staphylococcus aureus, MRSA, Furan analogues table, read-out: MIC MRSA): 12.4 µM (≈ 3.98 µg/mL)
- MIC (C. jejuni; Campylobacter jejuni, Furan analogues table, read-out: MIC C. jejuni): 12.5 µM (≈ 4.02 µg/mL)
- MIC (S. epidermidis; Staphylococcus epidermidis, planktonic, Furan analogues table, read-out: MIC S. epidermidis Plank): 12.4 µM (≈ 3.98 µg/mL)
- MIC (H. pylori; Helicobacter pylori, Furan analogues table, read-out: MIC H. pylori): 1.9 µM (≈ 0.611 µg/mL)
Structure (SMILES): O=C(Nc1ncc([N+](=O)[O-])s1)c1ccc(-c2cccs2)o1 [VPC16b1145, N-(5-Nitrothiazol-2-yl)-5-(thiophen-2-yl)furan-2-carboxamide]

- MIC (E. coli; [6]): 99.6 µM (≈ 32 µg/mL)
- MIC (MRSA; [7]): 24.9 µM (≈ 8 µg/mL)
- MIC (C. jejuni; [8]): 12.4 µM (≈ 3.98 µg/mL)
- MIC (S. epidermidis; [9]): 12.4 µM (≈ 3.98 µg/mL)
- MIC (H. pylori; [10]): 7.8 µM (≈ 2.51 µg/mL)
Structure (SMILES): O=C(Nc1ncc([N+](=O)[O-])s1)c1ccc(-c2ccco2)s1 [VPC16b1148]

Structure (SMILES): O=C(Nc1ncc([N+](=O)[O-])s1)c1ccc(-c2ccsc2)s1 [VPC16b1154]
- MIC (E. coli; [6]): 94.8 µM (≈ 32 µg/mL)
- MIC (MRSA; [7]): 94.8 µM (≈ 32 µg/mL)
- MIC (C. jejuni; [8]): 94.8 µM (≈ 32 µg/mL)
- MIC (S. epidermidis; [9]): 94.8 µM (≈ 32 µg/mL)
- MIC (H. pylori; [10]): 3.0 µM (≈ 1.01 µg/mL)

Structure (SMILES): Cc1cccc(-c2ccc(C(=O)Nc3ncc([N+](=O)[O-])s3)s2)c1 [VPC16b2011]
- MIC (E. coli; [6]): 92.6 µM (≈ 32 µg/mL)
- MIC (MRSA; [7]): 92.6 µM (≈ 32 µg/mL)
- MIC (C. jejuni; [8]): 92.6 µM (≈ 32 µg/mL)
- MIC (S. epidermidis; [9]): 92.6 µM (≈ 32 µg/mL)
- MIC (H. pylori; [10]): 2.2 µM (≈ 0.76 µg/mL)

- MIC (E. coli; [1]): 97.2 µM (≈ 32 µg/mL)
- MIC (MRSA; [2]): 97.2 µM (≈ 32 µg/mL)
- MIC (C. jejuni; [3]): 97.2 µM (≈ 32 µg/mL)
- MIC (S. epidermidis; [4]): 97.2 µM (≈ 32 µg/mL)
- MIC (H. pylori; [5]): 2.3 µM (≈ 0.757 µg/mL)
Structure (SMILES): Cc1cccc(-c2ccc(C(=O)Nc3ncc([N+](=O)[O-])s3)o2)c1 [VPC16b2014]

- MIC (E. coli; [1]): 97.2 µM (≈ 32 µg/mL)
- MIC (MRSA; [2]): 97.2 µM (≈ 32 µg/mL)
- MIC (C. jejuni; [3]): 97.2 µM (≈ 32 µg/mL)
- MIC (S. epidermidis; [4]): 97.2 µM (≈ 32 µg/mL)
- MIC (H. pylori; [5]): 1.5 µM (≈ 0.494 µg/mL)
Structure (SMILES): Cc1ccc(-c2ccc(C(=O)Nc3ncc([N+](=O)[O-])s3)o2)cc1 [VPC16b2019]

Structure (SMILES): O=C(Nc1ncc([N+](=O)[O-])s1)c1ccc(-c2cccs2)s1 [VPC16b2021]
- MIC (E. coli; [6]): 94.8 µM (≈ 32 µg/mL)
- MIC (MRSA; [7]): 94.8 µM (≈ 32 µg/mL)
- MIC (C. jejuni; [8]): 94.8 µM (≈ 32 µg/mL)
- MIC (S. epidermidis; [9]): 94.8 µM (≈ 32 µg/mL)
- MIC (H. pylori; [10]): 3.0 µM (≈ 1.01 µg/mL)

Structure (SMILES): O=C(Nc1ncc([N+](=O)[O-])s1)c1ccc(-c2ccsc2)o1 [VPC16b2022]
- MIC (E. coli; [1]): 99.6 µM (≈ 32 µg/mL)
- MIC (MRSA; [2]): 99.6 µM (≈ 32 µg/mL)
- MIC (C. jejuni; [3]): 99.6 µM (≈ 32 µg/mL)
- MIC (S. epidermidis; [4]): 99.6 µM (≈ 32 µg/mL)
- MIC (H. pylori; [5]): 6.2 µM (≈ 1.99 µg/mL)

Structure (SMILES): O=C(Nc1ncc([N+](=O)[O-])s1)c1ccc(-c2ccccc2)o1 [VPC16c1020]
- MIC (E. coli; [1]): 101.5 µM (≈ 32 µg/mL)
- MIC (MRSA; [2]): 101.5 µM (≈ 32 µg/mL)
- MIC (C. jejuni; [3]): 101.5 µM (≈ 32 µg/mL)
- MIC (S. epidermidis; [4]): 101.5 µM (≈ 32 µg/mL)
- MIC (H. pylori; [5]): 2.4 µM (≈ 0.757 µg/mL)

Structure (SMILES): O=C(Nc1ccccc1)Nc1ncc([N+](=O)[O-])s1 [VPC161223, 1-(5-Nitrothiazol-2-yl)-3-phenylurea]
- MIC (E. coli; Escherichia coli, 24 h, read-out: MIC (μM) E. coli Plank): 121 µM (≈ 32 µg/mL)
- MIC (MRSA; Staphylococcus aureus, MRSA, 24 h, read-out: MIC (μM) MRSA): 30.3 µM (≈ 8.01 µg/mL)
- MIC (C. jejuni; Campylobacter jejuni, 24 h, read-out: MIC (μM) C. jejuni): 30.3 µM (≈ 8.01 µg/mL)
- MIC (S. epidermidis; Staphylococcus epidermidis, 24 h, read-out: MIC (μM) S. epidermidis Plank): 30.3 µM (≈ 8.01 µg/mL)
- MIC (H. pylori; Helicobacter pylori, 24 h, read-out: MIC (μM) H. pylori): 1.4 µM (≈ 0.37 µg/mL)

- MIC (E. coli; Escherichia coli, planktonic, Thiophene analogues table, read-out: MIC E. coli Plank): 102 µM (≈ 32 µg/mL)
- MIC (MRSA; Staphylococcus aureus, MRSA, Thiophene analogues table, read-out: MIC MRSA): 102 µM (≈ 32 µg/mL)
- MIC (C. jejuni; Campylobacter jejuni, Thiophene analogues table, read-out: MIC C. jejuni): 102 µM (≈ 32 µg/mL)
- MIC (S. epidermidis; Staphylococcus epidermidis, planktonic, Thiophene analogues table, read-out: MIC S. epidermidis Plank): 102 µM (≈ 32 µg/mL)
- MIC (H. pylori; Helicobacter pylori, Thiophene analogues table, read-out: MIC H. pylori): 12.8 µM (≈ 4 µg/mL)
Structure (SMILES): O=C(Nc1nccs1)c1sc2cc(F)ccc2c1Cl [VPC161235]

- MIC (E. coli; [11]): 93.2 µM (≈ 32 µg/mL)
- MIC (MRSA; [12]): 93.2 µM (≈ 32 µg/mL)
- MIC (C. jejuni; [13]): 93.2 µM (≈ 32 µg/mL)
- MIC (S. epidermidis; [14]): 2.9 µM (≈ 0.996 µg/mL)
- MIC (H. pylori; [15]): 0.6 µM (≈ 0.206 µg/mL)
Structure (SMILES): O=C(C=Cc1ccc(C(F)(F)F)cc1)Nc1ncc([N+](=O)[O-])s1 [VPC161239]

Structure (SMILES): Cl.NCCOc1cc([N+](=O)[O-])ccc1C(=O)Nc1ncc([N+](=O)[O-])s1 [VPC161256]
- MIC (E. coli; [11]): 82.1 µM
- MIC (MRSA; [12]): 82.1 µM
- MIC (C. jejuni; [13]): 5.1 µM
- MIC (S. epidermidis; [14]): 82.1 µM
- MIC (H. pylori; [15]): 1.3 µM

Structure (SMILES): COc1cc2cc(C(=O)Nc3ncc([N+](=O)[O-])s3)sc2cc1F [VPC161259]
- MIC (E. coli; [6]): 90.6 µM (≈ 32 µg/mL)
- MIC (MRSA; [7]): 11.3 µM (≈ 3.99 µg/mL)
- MIC (C. jejuni; [8]): 11.3 µM (≈ 3.99 µg/mL)
- MIC (S. epidermidis; [9]): 11.3 µM (≈ 3.99 µg/mL)
- MIC (H. pylori; [10]): 2.1 µM (≈ 0.742 µg/mL)

- MIC (E. coli; [11]): 84.3 µM (≈ 32 µg/mL)
- MIC (MRSA; [12]): 84.3 µM (≈ 32 µg/mL)
- MIC (C. jejuni; [13]): 84.4 µM (≈ 32 µg/mL)
- MIC (S. epidermidis; [14]): 84.3 µM (≈ 32 µg/mL)
- MIC (H. pylori; [15]): 0.5 µM (≈ 0.19 µg/mL)
Structure (SMILES): CC(C)(C)OC(=O)COc1ccc(C(=O)Nc2ncc([N+](=O)[O-])s2)cc1 [VPC162036]
